Experimental data taken from PMC10501326, “A Phase I Study of the Pan-Notch Inhibitor CB-103 for Patients with Advanced Adenoid Cystic Carcinoma and Other Tumors” (Cancer Research Communications, 2023).
Several values for one entry are separate records, joined by “and”; a condition that tells them apart may be missing. Identical values can stand only once.

Legend:
[1] = Phase I/II safety and tolerability: DLTs and treatment-related adverse events (CTCAE v4.03); type: in vivo
From the text: The study was an open-label, nonrandomized, phase I/II dose-escalation study with planned expansion cohorts. […] Part B was a potential expansion phase at the MTD/RP2D to determine preliminary evidence of antitumor activity and to confirm safety among patients stratified by preselected cancer indications.
Part A was based on a two-parameter Bayesian logistic regression model (BLRM) to investigate safety and tolerability of sequentially enrolled dose cohorts of 3–6 patients. The first 2 participants of each cohort were enrolled in a staggered approach with at least 1 day apart between first dosing.
12-lead electrocardiograms and Holter safety monitoring with periodic cardiac imaging was employed. Efficacy assessments used RECIST v1.1 applied to CT/MRI scans performed at screening and every 8 weeks; or evaluated complete remission with complete hematologic recovery by National Comprehensive Cancer Network guideline criteria for T-ALL/T-LBL. Adherence to study drug administration was evaluated using both patient diaries and capsule counts.
Secondary endpoints included assessment of clinical benefit rate [CBR; defined as achieving complete and/or partial response and/or stable disease (SD) at prespecified benchmarks], duration of response, progression-free survival (PFS) and overall survival (OS), and plasma pharmacokinetics.
The SS was the primary population for all safety and efficacy analyses, except for determination of dose-DLT relationship.
Under this model, and accounting for dropouts and some additional patients enrolled to each cohort, approximately 55 patients were anticipated to enroll in dose escalation and approximately 45 patients in the confirmatory phase. […] All statistical analyses were analyzed using SAS v9.4 software.

[2] = set-up: method as in PMID 32601208; settings: single agent and in combination with targeted and cytotoxic therapies; cited from earlier work
[3] = N = 79, per-patient, CTCAE v4.03

What does the source list for `CC(C)(C)c1ccc(Oc2ccc(N)cn2)cc1` [CB-103]?
Number of DLTs observed ([1]; 12 dose-escalation cohorts (n = 64)): Two; Recommended phase II dose (RP2D) ([1]; 5 days on, 2 days off weekly): 500 mg twice daily; N DLT ([1]; CH8 522 mg QD, N=4): 1; N DLT ([1]; CH11 400 mg BID, 5/2, N=6): 1; Grade 4 TRAE elevated lipase ([1]; N = 79): ^aThe two TRAEs classified as grade 4 were elevated lipase (one event) and elevated liver function tests (one event).; Grade 4 TRAE elevated liver function tests ([1]; N = 79): ^aThe two TRAEs classified as grade 4 were elevated lipase (one event) and elevated liver function tests (one event).; TRAE Anemia, any grade [1, 3]: 13 (16) N (%); TRAE Anemia, grade 1–2 [1, 3]: 9 (11) N (%); TRAE Anemia, grade 3 [1, 3]: 4 (5) N (%); TRAE Any AE, any grade [1, 3]: 60 (76) N (%); TRAE Any AE, grade 1–2 [1, 3]: 47 (60) N (%); TRAE Any AE, grade 3 [1, 3]: 13 (16) N (%); TRAE Any AE, grade 4 [1, 3]: 2 (3) N (%); TRAE Blood and lymphatic system disorders, any grade [1, 3]: 13 (17) N (%); TRAE Blood and lymphatic system disorders, grade 1–2 [1, 3]: 9 (11) N (%); TRAE Blood and lymphatic system disorders, grade 3 [1, 3]: 4 (5) N (%); TRAE Diarrhea, any grade [1, 3]: 10 (13) N (%); TRAE Diarrhea, grade 1–2 [1, 3]: 10 (13) N (%); TRAE Dyschromatopsia, any grade [1, 3]: 15 (19) N (%); TRAE Dyschromatopsia, grade 1–2 [1, 3]: 15 (19) N (%); TRAE Dyspepsia, any grade [1, 3]: 10 (13) N (%); TRAE Dyspepsia, grade 1–2 [1, 3]: 10 (13) N (%); TRAE Eye disorders, any grade [1, 3]: 37 (47) N (%); TRAE Eye disorders, grade 1–2 [1, 3]: 36 (46) N (%); TRAE Eye disorders, grade 3 [1, 3]: 1 (1) N (%); TRAE Fatigue, any grade [1, 3]: 9 (11) N (%); TRAE Fatigue, grade 1–2 [1, 3]: 9 (11) N (%); TRAE Gastrointestinal disorders, any grade [1, 3]: 39 (49) N (%); TRAE Gastrointestinal disorders, grade 1–2 [1, 3]: 38 (48) N (%); TRAE Gastrointestinal disorders, grade 3 [1, 3]: 1 (1) N (%); TRAE General disorders and administration site conditions, grade 1–2 [1, 3]: 9 (11) N (%); TRAE General disorders and administration site conditions, grade 3 [1, 3]: 1 (1) N (%); TRAE Laboratory investigations, any grade [1, 3]: 13 (16) N (%); TRAE Laboratory investigations, grade 1–2 [1, 3]: 8 (10) N (%); TRAE Laboratory investigations, grade 3 [1, 3]: 5 (6) N (%); TRAE Nausea, any grade [1, 3]: 17 (22) N (%); TRAE Nausea, grade 1–2 [1, 3]: 17 (22) N (%); TRAE Skin and subcutaneous tissue disorders, any grade [1, 3]: 8 (10) N (%); TRAE Skin and subcutaneous tissue disorders, grade 1–2 [1, 3]: 6 (8) N (%); TRAE Skin and subcutaneous tissue disorders, grade 3 [1, 3]: 2 (3) N (%); TRAE Vision blurred, any grade [1, 3]: 12 (15) N (%); TRAE Vision blurred, grade 1–2 [1, 3]: 12 (15) N (%); TRAE Visual impairment, any grade [1, 3]: 8 (10) N (%); TRAE Visual impairment, grade 1–2 [1, 3]: 7 (9) N (%); TRAE Visual impairment, grade 3 [1, 3]: 1 (1) N (%); TRAE Vomiting, any grade [1, 3]: 9 (11) N (%); TRAE Vomiting, grade 1–2 [1, 3]: 8 (10) N (%); TRAE Vomiting, grade 3 [1, 3]: 1 (1) N (%); Grade 3 or 4 TRAEs, number reported ([1]; SS population (n = 79)): 26; Patients who interrupted or required dose adjustment ([1]; all patients): 32 patients (%); DLT: patients with asymptomatic grade 3 elevation in gamma-glutamyl transferase leading to drug discontinuation ([1]; cohort 8 (552 mg daily dose)): 1 patient; DLT observed in cohort 11 ([1]; cohort 11 (400 mg twice daily, 5 days on and 2 off each week), dose interruption, continued at reduced dose): grade 3 visual impairment; MTD ([1]; dose escalation up to 500 mg twice daily 5/2): not reached; Resumed at the dose prior to interruption ([1]; in vivo): 81 % of the time; Deaths related to study treatment ([1]; n = 79): no drug-related deaths; Grade 3–4 TRAE anemia ([1]; n = 79): 7 events; Grade 3–4 TRAE elevated liver function tests ([1]; n = 79): 5 events; Grade 3–4 TRAE elevated serum amylase or lipase ([1]; n = 79): 3 events; Patients with grade 3–4 TRAEs ([1]; n = 79): 15 patients (%) and 15 (19%) patients (%); Median duration of interruption for TRAEs ([1]; range: 1–14): 5 days; Anticancer activity [2]: potent anticancer activity
